Reference: PubChem BioAssay AID1963858 (Molecular Pharmacology Branch, DTP, NCI, 2024)

Test system: HOP-62 multicell spheroids with HUVEC/MSC, viability
Test: Anticancer human tumor HOP-62 cell line growth inhibition [KRAS2];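 note: viability read after a week of compound exposure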;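 for viability, T/C: 100% = DMSO vehicle-treated spheroids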
Settings: for IC50: curve of first compound; for viability, T/C: stronger effect = lower value
Procedure, shortened: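 KRAS-mutant tumor cells were grown as spheroids with HUVEC endothelial cells and human MSCs as stroma. Targeted agents were tested alone and with KRAS pathway inhibitors. Doses started at or near clinical Cmax, or 10 microM, descending half-log.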

SMILES: COC(=O)c1ccc2c(C(=Nc3ccc(N(C)C(=O)CN4CCN(C)CC4)cc3)c3ccccc3)c(O)[nH]c2c1 + COc1cc2nc(C)nc(NC(C)c3cc(N)cc(C(F)(F)F)c3)c2cc1OC1CCOC1
- IC50 (second compound 0.1 µM): 797 nM
- IC50 (second compound 0.316 µM): 325 nM
- IC50 (second compound 1 µM): 52.2 nM
- IC50 (second compound 3.16 µM): < 31.6 nM
- IC50 (second compound 10 µM): < 31.6 nM
- viability, T/C (second compound 0.1 µM, first compound 0.0316 µM): 98.5%
- viability, T/C (second compound 0.1 µM, first compound 0.1 µM): 85.7%
- viability, T/C (second compound 0.1 µM, first compound 0.316 µM): 53%
- viability, T/C (second compound 0.1 µM, first compound 1 µM): 50.9%
- viability, T/C (second compound 0.1 µM, first compound 3.16 µM): 34.9%
- viability, T/C (second compound 0.1 µM, first compound 10 µM): 10.4%
- viability, T/C (second compound 0.316 µM, first compound 0.0316 µM): 67%
- viability, T/C (second compound 0.316 µM, first compound 0.1 µM): 57.1%
- viability, T/C (second compound 0.316 µM, first compound 0.316 µM): 51.5%
- viability, T/C (second compound 0.316 µM, first compound 1 µM): 25.5%
- viability, T/C (second compound 0.316 µM, first compound 3.16 µM): 26.3%
- viability, T/C (second compound 0.316 µM, first compound 10 µM): 20.8%
- viability, T/C (second compound 1 µM, first compound 0.0316 µM): 54%
- viability, T/C (second compound 1 µM, first compound 0.1 µM): 46.1%
- viability, T/C (second compound 1 µM, first compound 0.316 µM): 33.4%
- viability, T/C (second compound 1 µM, first compound 1 µM): 28.7%
- viability, T/C (second compound 1 µM, first compound 3.16 µM): 26.7%
- viability, T/C (second compound 1 µM, first compound 10 µM): 16.2%
- viability, T/C (second compound 3.16 µM, first compound 0.0316 µM): 45.2%
- viability, T/C (second compound 3.16 µM, first compound 0.1 µM): 32.6%
- viability, T/C (second compound 3.16 µM, first compound 0.316 µM): 36.5%
- viability, T/C (second compound 3.16 µM, first compound 1 µM): 24.5%
- viability, T/C (second compound 3.16 µM, first compound 3.16 µM): 18.9%
- viability, T/C (second compound 3.16 µM, first compound 10 µM): 0.46%
- viability, T/C (second compound 10 µM, first compound 0.0316 µM): 39.9%
- viability, T/C (second compound 10 µM, first compound 0.1 µM): 32.6%
- viability, T/C (second compound 10 µM, first compound 0.316 µM): 30.7%
- viability, T/C (second compound 10 µM, first compound 1 µM): 24.5%
- viability, T/C (second compound 10 µM, first compound 3.16 µM): 0.7%
- viability, T/C (second compound 10 µM, first compound 10 µM): 0.2%
